Here are results for two compounds from patent US20090137667A1, “Pesticide Delivery System” (priority 2006, published 2009).

Structures are written as SMILES.

Data set [1] in a line: Particle size of aqueous dispersions by dynamic light scattering. It counts as physicochemical. Conditions: Table 14, microblend with Pluronic P123:Soprophor BSU 1:1, insecticide 4.5 mg/ml, after 2 hours, Nanotrac 250. How it is done: The suspensions were shaken for 40 h at room temperature followed by centrifugation for 10 min at 13,000 rpm. The concentration of Bifenthrin in the supernatants was determined by UV-spectroscopy. For this purpose, standard solutions containing from 0 to 0.58 mg/ml of Bifenthrin in ethanol were prepared using a stock solution of Bifenthrin in acetonitrile with concentration of 8.7 mg/ml. These solutions were used to obtain a calibration curve by measuring an absorbance at 260 nm using Perkin-Elmer Lambda 25 spectrophotometer. […]
Compositions of insecticides were prepared using melts of mixtures of nonionic block copolymer and ethoxylated surfactants. Specifically, tristyrylphenol etoxylate (Soprophor BSU, Rhodia) was used in combination with Pluronic P123 (PEO20-PPO69-PEO20). 250 mg of Pluronic P123 were mixed with 250 mg of Soprophor BSU, and 50 mg of fine powder of the insecticide, and were melted together for 1 hour. The composition of the copolymer/surfactant mixture was P123:Soprophor=1:1 by weight. The feeding copolymer/surfactant:insecticide ratio was 10:1. The melted compositions were cooled down to room temperature. […] 50 mg of the composition was rehydrated in 1 ml of water upon shaking for 1 hour. The total concentration of copolymer/surfactant components in the mixture was ca. 4.6%. The targeted content of insecticide in the microblend dispersion was 4.5 mg/ml.

The nature of data set [2]: Soil mobility by soil thin layer chromatography (s-TLC). It is filed as physicochemical. The following applies: Example 50, 14C-bifenthrin, 10% aqueous dispersions, water eluant. The protocol:
The evaluation of the soil mobility of the bifenthrin microblends according to the invention was performed using soil thin layer chromatography (s-TLC). Air-dried greenhouse topsoil, sieved to pass through with a 250 μm sieve was used to prepare s-TLC plates. Thirty mL of distilled water was added to 60 g of the sieved soil and the mixture was thoroughly grounded until a smooth, moderately fluid slurry was obtained. The soil slurry was quickly spread evenly across a clean grooved glass plate. Plates contained 9×1 cm channels cut to a depth of 2 mm, with the channels spaced 1 cm apart. Plates were allowed to dry at room temperature over 24 hours. A horizontal line was scribed 12.5 cm above the plate base through the soil layer before the soil dried completely. Bifenthrin microblends used in these experiments were prepared using a bifenthrin sample spiked with ^14C-radiolabeled bifenthrin to achieve reasonable sensitivity. Aqueous dispersions of microblends with concentrations of 10% were used in these experiments. Aliquots of each radiolabeled microblend were spotted 1.5 cm above the plate base. ^14C-labeled sulfentrazone and suspension of ^14C-labeled bifenthrin were used as controls. […]
The s-TLC were then scanned for 2 hours using a Packard InstantImager™ TLC plate scanner. Rf values were determined from the images obtained using the following equation (1): […]

Data set [3] is described as follows: Stability and appearance of aqueous dispersions on storage. Conditions: Table 14, microblend with Pluronic P123:Soprophor BSU 1:1, storage at room temperature. It is filed as physicochemical.
The conditions of data set [4]: crude Bifenthrin; cited from earlier work.

With `Cc1c(COC(=O)[C@@H]2[C@H](/C=C(\Cl)C(F)(F)F)C2(C)C)cccc1-c1ccccc1` (racemic) [Bifenthrin], the “Particle size (nm)” value in data set [1] was 14 nm. This compound also came in with a Rf in data set [2] of 0.00. Further, in data set [3], the “Dispersion appearance in 24 hours” value is “clear”. Further, the “n-octanol partition coefficient, logP” value in data set [4] was greater than 6.

The compound `Cc1nn(-c2cc(NS(C)(=O)=O)c(Cl)cc2Cl)c(=O)n1C(F)F` [Sulfentrazone] had a Rf in data set [2] of 1.0.
